Measurements taken from PubChem BioAssay (NCI).
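Growth conditions: 96-well plates. Treatment: test compound, 48 hours, 5 concentrations. Analysis: linear interpolation between bracketing concentrations; unreached endpoints set to highest concentration. GI50 is the concentration that inhibits growth by half. The concentration for full growth arrest is given as TGI.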

What was measured:
Experiment in all cases: inhibition of tumour cell growth, NCI panel, 48 h
[1] = tested on: SF-268 CNS
[2] = tested on: RPMI-8226 leukemia
[3] = tested on: UACC-257 melanoma
[4] = tested on: OVCAR-4 ovarian
[5] = tested on: OVCAR-3 ovarian
[6] = tested on: HCC-2998 colon
[7] = tested on: SNB-19 CNS
[8] = tested on: COLO 205 colon
[9] = tested on: SF-295 CNS
[10] = tested on: MCF7 breast
[11] = tested on: A498 renal
[12] = tested on: OVCAR-5 ovarian
[13] = tested on: IGROV1 ovarian
[14] = tested on: HT29 colon
[15] = tested on: UACC-62 melanoma
[16] = tested on: SR leukemia
[17] = tested on: KM12 colon
[18] = tested on: DU-145 prostate
[19] = tested on: U251 CNS
[20] = tested on: NCI-H460 lung
[21] = tested on: MALME-3M melanoma
[22] = tested on: M14 melanoma
[23] = tested on: ACHN renal
[24] = tested on: HOP-92 NSCLC
[25] = tested on: SK-MEL-28 melanoma
[26] = tested on: UO-31 renal
[27] = tested on: NCI-H226 lung
[28] = tested on: T-47D breast
[29] = tested on: K-562 leukemia
[30] = tested on: RXF 393 renal
[31] = tested on: EKVX NSCLC
[32] = tested on: MDA-MB-435
[33] = tested on: MDA-MB-231 breast
[34] = tested on: TK-10 renal
[35] = tested on: A549 NSCLC
[36] = tested on: SF-539 CNS
[37] = tested on: OVCAR-8 ovarian
[38] = tested on: CAKI-1 renal
[39] = tested on: SN12C renal
[40] = tested on: HS 578T breast
[41] = tested on: SK-MEL-2 melanoma
[42] = tested on: NCI-H522 lung
[43] = tested on: SK-MEL-5 melanoma
[44] = tested on: 786-0 renal
[45] = tested on: SNB-75 CNS
[46] = tested on: HL-60(TB) leukemia
[47] = tested on: BT-549 breast
[48] = tested on: NCI/ADR-RES ovarian
[49] = tested on: HOP-62 NSCLC
[50] = tested on: SK-OV-3 ovarian
[51] = tested on: HCT-116 colon
[52] = tested on: LOX IMVI melanoma
[53] = tested on: HCT-15 colon
[54] = tested on: CCRF-CEM leukemia
[55] = tested on: SW-620 colon
[56] = tested on: MOLT-4 leukemia

`O[C@@H]1CCCN1Cc1cc2cc3c(cc2c2cc(OCc4ccccc4)ccc12)OCO3` showed a GI50 [1] of 4.78 µM, a TGI [1] of 20.1 µM and a GI50 [2] of 1.77 µM. For the same compound, the TGI [2] was 4.63 µM, the GI50 [3] was 2.17 µM and the TGI [3] was 4.37 µM. The GI50 [4] was 5.45 µM, the TGI [4] was 20.3 µM and the GI50 [5] was 3.73 µM. It also gave a TGI [5] of 14.5 µM, a GI50 [6] of 1.85 µM and a TGI [6] of 3.76 µM. It also gave a GI50 [7] of 6.23 µM, a TGI [7] of 21.4 µM and a GI50 [8] of 1.7 µM. It also gave a TGI [8] of 3.46 µM, a GI50 [9] of 1.95 µM and a TGI [9] of 4.23 µM. It also gave a GI50 [10] of 2.15 µM, a TGI [10] of 5.07 µM and a GI50 [11] of 10.5 µM. It also gave a TGI [11] of 25.3 µM, a GI50 [12] of 5.64 µM and a TGI [12] of 21.2 µM. For the same compound, the GI50 [13] was 5.48 µM, the TGI [13] was 20.1 µM and the GI50 [14] was 1.94 µM. The TGI [14] was 5.09 µM, the GI50 [15] was 1.97 µM and the TGI [15] was 3.68 µM. For the same compound, the GI50 [16] was 2.63 µM, the TGI [16] was 7.08 µM and the GI50 [17] was 3.2 µM. It also gave a TGI [17] of 8.95 µM, a GI50 [18] of 5.24 µM and a TGI [18] of 21.8 µM. It also gave a GI50 [19] of 3.58 µM, a TGI [19] of 14.8 µM and a GI50 [20] of 2.6 µM. It also gave a TGI [20] of 7.38 µM, a GI50 [21] of 2.37 µM and a TGI [21] of 5.44 µM. It also gave a GI50 [22] of 1.81 µM, a TGI [22] of 3.35 µM and a GI50 [23] of 8.37 µM. For the same compound, the TGI [23] was 22 µM, the GI50 [24] was 1.53 µM and the TGI [24] was 5.36 µM. For the same compound, the GI50 [25] was 1.78 µM, the TGI [25] was 3.85 µM and the GI50 [26] was 11.2 µM. It also gave a TGI [26] of 25.2 µM, a GI50 [27] of 15.7 µM and a TGI [27] of 37.7 µM. For the same compound, the GI50 [28] was 2.93 µM, the TGI [28] was 11.7 µM and the GI50 [29] was 2.71 µM. For the same compound, the TGI [29] was 8.83 µM, the GI50 [30] was 1.53 µM and the TGI [30] was 3.85 µM. The GI50 [31] was 11.6 µM, the TGI [31] was 27.3 µM and the GI50 [32] was 2 µM. The TGI [32] was 4.29 µM, the GI50 [33] was 2.18 µM and the TGI [33] was 5.59 µM. It also gave a GI50 [34] of 5.85 µM, a TGI [34] of 19.8 µM and a GI50 [35] of 3.69 µM. The TGI [35] was 14.8 µM, the GI50 [36] was 3.19 µM and the TGI [36] was 10.4 µM. The GI50 [37] was 3.93 µM, the TGI [37] was 17.6 µM and the GI50 [38] was 3.42 µM. For the same compound, the TGI [38] was 12.6 µM, the GI50 [39] was 3.6 µM and the TGI [39] was 20.3 µM. It also gave a GI50 [40] of 2.82 µM, a TGI [40] of 9.07 µM and a GI50 [41] of 2.23 µM. The TGI [41] was 4.79 µM, the GI50 [42] was 6.08 µM and the TGI [42] was 21.5 µM. For the same compound, the GI50 [43] was 1.78 µM, the TGI [43] was 3.5 µM and the GI50 [44] was 1.89 µM. It also gave a TGI [44] of 3.69 µM, a GI50 [45] of 5.92 µM and a TGI [45] of 19.7 µM. It also gave a GI50 [46] of 1.94 µM, a TGI [46] of 4.13 µM and a GI50 [47] of 11 µM. The TGI [47] was 26.4 µM, the GI50 [48] was 6.12 µM and the TGI [48] was 21.7 µM. For the same compound, the GI50 [49] was 5.78 µM, the TGI [49] was 18.9 µM and the GI50 [50] was 12.2 µM. It also gave a TGI [50] of 25.7 µM, a GI50 [51] of 2.1 µM and a TGI [51] of 5.16 µM. It also gave a GI50 [52] of 1.8 µM, a TGI [52] of 3.44 µM and a GI50 [53] of 3.47 µM. The TGI [53] was 12.3 µM, the GI50 [54] was 4.35 µM and the TGI [54] was 14.4 µM. For the same compound, the GI50 [55] was 2.21 µM, the TGI [55] was 5.75 µM and the GI50 [56] was 3.38 µM. For the same compound, the TGI [56] was 14.1 µM.
